Measured values from paper PMC10906223 (JCI Insight, 2024).
Values joined by “and” are separate entries in the source; they are usually repeats but may differ in a detail not shown here. Equal entries are not always repeated. “Also recorded” adds a separate entry of the source.

Columns and labels:
[1] = test system: diabetic NOD mice; experiment: Blood glucose in diabetic NOD mice, once-daily oral WCDD301 in SAIB-Agar; format: in vivo, mouse; design: Blood glucose: unit: mg/dL; conditions: for Blood glucose: oral 7.5 mg/kg once daily, per mouse, Figure 6A, 7.5 mg/kg
Procedure: For the polygenic model for T1D (the Jackson Laboratory), 10 cohorts of independent NOD/shiLTJ mice (each 10, equal numbers of females and males) were purchased at 7–9 weeks old. Blood glucose levels were monitored twice a week using a glucometer (Glucocard Vital) to find those mice at risk of diabetes. Diabetes was confirmed when the blood glucose levels remained at 200–250 mg/dL for 3 consecutive days. This profile of the blood glucose level is referred to as moderate hyperglycemia.
We prepared sustained time-release pearls for oral administration in the mouse models. To this end, we combined FDA-approved excipients of Eastman BioSustane SAIB NF (product code: 41271-00, sample distribution from Eastman Company, Kingsport, Tennessee, USA; provided by Phillip Cook) and Agar (Lamda Biotech, catalog C110) at the ratio of 1:1.45 (w/w). We also prepared another type of sustained time-release pearl by mixing SAIB, Agar, and L (-) malic acid (MilliporeSigma, catalog 202-601-5) at the ratio of 1:1.4:0.2 (w/w/w). A homogenous paste mixture was prepared, and pearls were formed with 50–60 mg weight and approximately 2 mm diameter by pinching off the mixture and manually rolling.
We preweighed WCDD301 into microfuge tubes and reconstituted it using deionized water. Using a 10 μL pipette tip, we placed the calculated dose of WCDD301 (at the volume range of 1–1.5 μL) within the center of pearls. WCDD301 was placed into pearls 30–45 minutes before administration. For oral administration of pearls, we designed an applicator using a disposable plastic transfer pipette and syringe plunger lubricated with olive oil. Food intake and body weight in each experimental group (diabetic WCDD301-treated, diabetic placebo-treated, and nondiabetic placebo-treated NOD mice) were monitored daily for 4 weeks. Urine glucose was measured from individually caged NOD mice (nondiabetic placebo treated n = 2, diabetic placebo treated n = 2, and diabetic WCDD301 treated n = 4, 21–23 weeks old) with metabolic cages. Urine glucose was monitored every 24 hours for 10 days by semiquantitative measurements (P-STICKS, Millpledge Veterinary).
We applied the following therapeutic regimens in the fed state for oral dosing of pearls containing WCDD301. The therapeutic regimen for diabetic NOD mice with moderate hyperglycemia (n = 6–9; 6 females/3 males) or nondiabetic ones with blood glucose levels of < 140 mg/dL (females, n = 5) was dose 7.5 mg/kg, dosage once a day, and excipient SAIB-Agar, 50–60 mg. The therapeutic regimen for STZ-induced diabetic mice with early severe hyperglycemia (n = 3, placebo group; n = 4 treatment group, females) was dose 10 mg/kg, dosage once a day, and excipient SAIB-Agar-malic acid, 50–60 mg.

[2] = biological target: T1, EphA4 receptor (Mus musculus, UniProt Q03137); experiment: ELISA: competition between WCDD301 and Ephrin-A5 Fc for binding to EphA4; conditions: for Bound Ephrin (WCDD301, 0.01 µM) / Bound Ephrin (WCDD301, 0.1 µM) / Bound Ephrin (WCDD301, 1 µM): Figure 1E; for Bound Ephrin-A5 (ELISA signal) / AUC of competition curve: Figure 1D; for AUC of competition curve: EphA4 3 μg/mL, mean ± SD
T1 construct: purchased R&D Systems 641-A4-200
T1 sequence (Q03137 with tags, fused parts or gaps limits assumed): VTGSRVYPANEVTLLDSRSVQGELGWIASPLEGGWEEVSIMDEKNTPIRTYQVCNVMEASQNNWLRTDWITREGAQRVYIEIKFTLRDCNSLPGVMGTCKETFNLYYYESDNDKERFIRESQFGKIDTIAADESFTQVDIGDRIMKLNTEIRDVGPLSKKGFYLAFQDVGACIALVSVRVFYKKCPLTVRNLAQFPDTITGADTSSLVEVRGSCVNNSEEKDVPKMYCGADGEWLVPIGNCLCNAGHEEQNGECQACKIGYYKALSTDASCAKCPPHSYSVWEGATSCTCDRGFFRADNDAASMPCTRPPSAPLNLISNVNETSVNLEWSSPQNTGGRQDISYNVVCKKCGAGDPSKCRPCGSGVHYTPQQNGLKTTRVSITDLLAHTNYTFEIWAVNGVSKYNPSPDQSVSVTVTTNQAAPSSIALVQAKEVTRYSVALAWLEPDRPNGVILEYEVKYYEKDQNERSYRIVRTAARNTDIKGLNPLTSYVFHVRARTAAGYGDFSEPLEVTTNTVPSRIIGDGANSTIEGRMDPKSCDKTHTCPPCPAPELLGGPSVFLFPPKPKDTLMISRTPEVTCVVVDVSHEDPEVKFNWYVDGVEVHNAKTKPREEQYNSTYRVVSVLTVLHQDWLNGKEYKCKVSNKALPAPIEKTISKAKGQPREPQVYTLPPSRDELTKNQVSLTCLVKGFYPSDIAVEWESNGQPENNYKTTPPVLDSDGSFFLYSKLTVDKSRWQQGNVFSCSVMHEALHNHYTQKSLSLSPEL
Procedure: Wells of the protein A–coated microplate (Pierce, catalog 15132) were washed using 200 μL of binding buffer (PBS supplemented by 0.01% Tween 20). Recombinant mouse EphA4 Fc chimera protein (R&D Systems, catalog 641-A4-200) was reconstituted in 1× PBS (Genesee, catalog 25-507XB, pH 7.2 ± 0.1), diluted to 3 μg/mL using binding buffer, dispensed (100 μL) in each well, and rocked on a belly dancer shaker (3 hours at room temperature, RT). Following 3 washes in the binding buffer, blocking was done using blocking buffer (5% BSA in binding buffer) for 3 hours at RT. Then, after 5 washes, the reconstituted recombinant mouse Ephrin-A5 Fc (R&D Systems, catalog 7396-EA-050) was added (100 μL) into each well and rocked for 2.5 hours on the shaker (Ephrin-A5 Fc concentrations were used as described in the Results section). After 7 washes using binding buffer, alkaline phosphatase–conjugated antibody against Ephrin-A5 was diluted (1:1,000) in the binding buffer plus 2% BSA, added to each well, and incubated at 4°C, overnight. Conjugation of the anti-EFNA5 antibody (Abnova, catalog H00001946-M02; 0.5 mg/mL; target sequence 114–203) was done using Abcam conjugation kit (catalog ab102850) based on the manufacturer’s instruction. After washing 7 times, p-nitrophenyl phosphate tablet (MilliporeSigma, catalog N1891) was reconstituted in 5 mL of PBS and added to each well (100 μL). Following 1 hour shaking at RT in the dark, reaction was stopped by adding 100 μL of 3N NaOH. OD was read at 405 nm within 5 minutes using the microplate reader (Agilent BioTek Cytation 5).
We took following the approaches to assay competition between Ephrin-A5 and WCDD301 for binding to the EphA4 receptor. Wells of the microplate were coated by a fixed level of EphA4 Fc (3.5 pmol/well), and competition experiments with Ephrin-A5 and WCDD301 were performed as listed in Supplemental Tables 3 and 4. We determined the KD value for each condition by means of Michaelis-Menten best fit analysis in GraphPad Prism software version 4. To control for potential interaction between WCDD301 and Ephrin-A5 Fc, we coated wells of a microplate using Ephrin-A5 Fc and then incubated them with or without WCDD301 (0.2 μM).

Compound: CC(=O)OCC(N)(COC(C)=O)COC(C)=O [WCDD301, 2-(acetoxymethyl)-2-aminopropane-1,3-diyl diacetate]
- Blood glucose (Supplemental Figure 6A) ([1]; 48h later (after stopping dosing)): 350 mg/dL and 370 mg/dL and 330 mg/dL
- Blood glucose (Supplemental Figure 6A) ([1]; A week after resuming dosing): 119 mg/dL and 124 mg/dL and 131 mg/dL
- Blood glucose (Supplemental Figure 6A) ([1]; Stoping dosing): 119 mg/dL and 109 mg/dL and 124 mg/dL
- Blood glucose (Supplemental Figure 6A) ([1]; Week 1): 184 mg/dL and 200 mg/dL and 210 mg/dL
- Blood glucose (Supplemental Figure 6A) ([1]; Week 2): 122 mg/dL and 116 mg/dL and 109 mg/dL
- Blood glucose (Supplemental Figure 6A) ([1]; Week 3): 132 mg/dL and 147 mg/dL and 115 mg/dL
- Effect on blood glucose ([1]; diabetic NOD mice, moderate hyperglycemia (200–250 mg/dL), once-daily oral, SAIB-Agar): significantly reduced blood glucose levels within a week of administration; also recorded: normalized blood glucose level during an 11-week follow-up
- Time to normalized blood glucose ([1]; diabetic NOD mice, SAIB-Agar formulation): ≤ 2 weeks
- Blood glucose ([1]; diabetic NOD mice, Week 1, before treatment 230-251, mg/dL): 165 and 170 and 163 and 184 and 200 and 210 and 198 and 180 and 175
- Blood glucose ([1]; diabetic NOD mice, Week 2): 114 and 125 and 128 and 122 and 116 and 109 and 115
- Blood glucose ([1]; diabetic NOD mice, Week 3): 120 and 115 and 116 and 132 and 147 and 109 and 110
- Blood glucose ([1]; diabetic NOD mice, Week 4): 119 and 124 and 108 and 112 and 115 and 110
- Blood glucose ([1]; diabetic NOD mice, Week 5): 109 and 105 and 115 and 118 and 117
- Blood glucose ([1]; diabetic NOD mice, Week 6): 105 and 107 and 104 and 120 and 112 and 118
- Blood glucose ([1]; diabetic NOD mice, Week 7): 109 and 105 and 106 and 110 and 118 and 116
- Blood glucose ([1]; diabetic NOD mice, Week 8): 109 and 107 and 110 and 118 and 116
- Blood glucose ([1]; diabetic NOD mice, Week 9): 114 and 109 and 120 and 105 and 118 and 98
- Blood glucose ([1]; diabetic NOD mice, Week 10): 119 and 114 and 117 and 102 and 105 and 108
- Blood glucose ([1]; diabetic NOD mice, Week 11): 109 and 112 and 116 and 114 and 108 and 110
- Blood glucose after discontinuing for 48 hours and resuming dosing ([1]; treated diabetic NOD mice, Supplemental Figure 6A): resulted in hyperglycemia; also recorded: Euglycemia returned after resuming the WCDD301 dosing
- Competition with Ephrin-A5 for EphA4 ([2]; AUC analysis): competes with the natural ligand, Ephrin-A5
- Bound Ephrin (WCDD301, 0.01 µM) ([2]; Ephrin-A5 Fc 2 nM): 0.051 and 0.05 and 0.052
- Bound Ephrin (WCDD301, 0.1 µM) ([2]; Ephrin-A5 Fc 2 nM): 0.05 and 0.06
- Bound Ephrin (WCDD301, 1 µM) ([2]; Ephrin-A5 Fc 2 nM): 0.03 and 0.04
- Bound Ephrin (WCDD301, 0.01 µM) ([2]; Ephrin-A5 Fc 4 nM): 0.061 and 0.07 and 0.064
- Bound Ephrin (WCDD301, 0.1 µM) ([2]; Ephrin-A5 Fc 4 nM): 0.062 and 0.064 and 0.07
- Bound Ephrin (WCDD301, 1 µM) ([2]; Ephrin-A5 Fc 4 nM): 0.04 and 0.05
- Bound Ephrin (WCDD301, 0.01 µM) ([2]; Ephrin-A5 Fc 8 nM): 0.142 and 0.122 and 0.156
- Bound Ephrin (WCDD301, 0.1 µM) ([2]; Ephrin-A5 Fc 8 nM): 0.119 and 0.121 and 0.098
- Bound Ephrin (WCDD301, 1 µM) ([2]; Ephrin-A5 Fc 8 nM): 0.1 and 0.104 and 0.11
- Bound Ephrin (WCDD301, 0.01 µM) ([2]; Ephrin-A5 Fc 16 nM): 0.18 and 0.189 and 0.209
- Bound Ephrin (WCDD301, 0.1 µM) ([2]; Ephrin-A5 Fc 16 nM): 0.141 and 0.137 and 0.119
- Bound Ephrin (WCDD301, 1 µM) ([2]; Ephrin-A5 Fc 16 nM): 0.145 and 0.115 and 0.125
- Bound Ephrin (WCDD301, 0.01 µM) ([2]; Ephrin-A5 Fc 32 nM): 0.265 and 0.289 and 0.221
- Bound Ephrin (WCDD301, 0.1 µM) ([2]; Ephrin-A5 Fc 32 nM): 0.21 and 0.269 and 0.243
- Bound Ephrin (WCDD301, 1 µM) ([2]; Ephrin-A5 Fc 32 nM): 0.234 and 0.189 and 0.171
- Bound Ephrin (WCDD301, 0.01 µM) ([2]; Ephrin-A5 Fc 64 nM): 0.321 and 0.34 and 0.365
- Bound Ephrin (WCDD301, 0.1 µM) ([2]; Ephrin-A5 Fc 64 nM): 0.301 and 0.29 and 0.27
- Bound Ephrin (WCDD301, 1 µM) ([2]; Ephrin-A5 Fc 64 nM): 0.28 and 0.27 and 0.26
- Bound Ephrin-A5 (ELISA signal) ([2]; WCDD301 0.0625 µM, Ephrin-A5 (2 nM)): 0.1 and 0.12
- Bound Ephrin-A5 (ELISA signal) ([2]; WCDD301 0.0625 µM, Ephrin-A5 (4 nM), c4-c6): 0.217 and 0.196 and 0.19
- Bound Ephrin-A5 (ELISA signal) ([2]; WCDD301 0.0625 µM, Ephrin-A5 (4 nM), third group c7-c9): 0.23 and 0.236 and 0.246
- Bound Ephrin-A5 (ELISA signal) ([2]; WCDD301 0.0625 µM, Ephrin-A5 (8 nM)): 0.237 and 0.247 and 0.265
- Bound Ephrin-A5 (ELISA signal) ([2]; WCDD301 0.125 µM, Ephrin-A5 (2 nM)): 0.086 and 0.108 and 0.1
- Bound Ephrin-A5 (ELISA signal) ([2]; WCDD301 0.125 µM, Ephrin-A5 (4 nM), c4-c6): 0.202 and 0.18 and 0.187
- Bound Ephrin-A5 (ELISA signal) ([2]; WCDD301 0.125 µM, Ephrin-A5 (4 nM), third group c7-c9): 0.208 and 0.216
- Bound Ephrin-A5 (ELISA signal) ([2]; WCDD301 0.125 µM, Ephrin-A5 (8 nM)): 0.236 and 0.233 and 0.234
- Bound Ephrin-A5 (ELISA signal) ([2]; WCDD301 0.25 µM, Ephrin-A5 (2 nM)): 0.072 and 0.073 and 0.082
- Bound Ephrin-A5 (ELISA signal) ([2]; WCDD301 0.25 µM, Ephrin-A5 (4 nM), c4-c6): 0.148 and 0.141 and 0.169
- Bound Ephrin-A5 (ELISA signal) ([2]; WCDD301 0.25 µM, Ephrin-A5 (4 nM), third group c7-c9): 0.201 and 0.205 and 0.203
- Bound Ephrin-A5 (ELISA signal) ([2]; WCDD301 0.25 µM, Ephrin-A5 (8 nM)): 0.222 and 0.22 and 0.212
- AUC of competition curve ([2]; at 2 nM): 0.025 ± 0.0011 AU
- AUC of competition curve ([2]; at 4 nM): 0.0469 ± 0.0014 AU
- AUC of competition curve ([2]; at 6 nM): 0.0554 ± 0.0006 AU
- AUC of competition curve ([2]; at 8 nM): 0.0617 ± 0.0011 AU
